Assay results reported in US9187460B2, “Estrogen receptor modulators and uses thereof” (SERAGON PHARMACEUTICALS, INC., priority 2011, dated 2015).
pIC50: −log10 of the molar value.

How the values were obtained:
[1] = test system: MCF-7 cells; test: Breast Cancer Cell Viability Assay (MCF7 Viability Assay); type: cell-based; settings: for pIC50: Homo sapiens, MCF7, 120 h, read-out: MCF7 Viability Assay IC50; for MCF7 Viability Assay Max Response: MCF-7 cells, 5 days' compound exposure, CellTiter-Glo
[2] = biological target: T1, ER-α (Homo sapiens, UniProt P03372); test: Breast Cancer Cell ER-α in Cell Western Assay (SP1); type: cell-based; settings: MCF7, read-out: ER In-Cell Western Assay (SP1); Max Response
T1 construct: endogenous in cells; host or cells: MCF-7
T1 sequence (P03372 whole entry): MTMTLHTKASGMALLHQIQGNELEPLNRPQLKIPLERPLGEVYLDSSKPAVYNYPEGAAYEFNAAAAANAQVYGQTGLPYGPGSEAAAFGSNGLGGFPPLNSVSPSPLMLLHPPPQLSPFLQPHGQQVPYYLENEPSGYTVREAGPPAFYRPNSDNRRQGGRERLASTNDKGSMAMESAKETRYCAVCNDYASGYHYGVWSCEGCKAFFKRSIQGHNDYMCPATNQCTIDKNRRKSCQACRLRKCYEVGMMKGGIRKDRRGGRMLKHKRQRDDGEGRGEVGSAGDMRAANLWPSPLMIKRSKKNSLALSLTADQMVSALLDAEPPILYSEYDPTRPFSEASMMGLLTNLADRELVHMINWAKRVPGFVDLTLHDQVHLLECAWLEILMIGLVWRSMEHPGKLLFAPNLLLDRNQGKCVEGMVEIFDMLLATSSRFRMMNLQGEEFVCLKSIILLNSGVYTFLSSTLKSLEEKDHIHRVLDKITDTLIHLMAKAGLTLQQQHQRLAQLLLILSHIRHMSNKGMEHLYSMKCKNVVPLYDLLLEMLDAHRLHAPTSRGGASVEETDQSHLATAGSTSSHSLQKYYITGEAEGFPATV
Protocol: Breast Cancer Cell ER-α in Cell Western Assay (SP1)
MCF-7 cells were adjusted to a concentration of 200,000 cells per mL in RPMI containing 10% charcoal-stripped FBS and 20 mM HEPES. 16 microliters of the cell suspension (3200 cells) was added to each well of a poly-D-lysine 384 well plate, and the cells were incubated overnight to allow the cells to adhere. The following day an eleven point, serial semilog dilution of each compound was added to the cells in 16 μL at a final concentration ranging from 0.3-0.000003 μM. At 4 or 24 hr post compound addition, the cells were fixed (10% formalin in PBS) for 20 minutes. Cells were permeablized in PBS 0.1% Triton and blocked with LICOR blocking buffer (50 μl/well, 90′). The wells were then incubated overnight at 4° C. with SP1 rabbit monoclonal Ab (Thermo Scientific) diluted 1:1000 in LICOR blocking buffer/0.1% Tween-20. Wells which were treated with blocking buffer with Tween but no antibody were used as a background control. Wells were washed with 0.1% Tween-20/PBS and then incubated in goat anti-rabbit IRDye™ 800CW (LICOR Inc.; 1:1000) and DRAQ5 DNA dye (1:2000 for 2 mM stock) diluted in LICOR blocking buffer containing 0.1% Tween-20 and 0.01% SDS for 60 minutes. Cells were washed (50 μl/well, 5′ each) in 0.1% Tween-20/PBS. Plates were scanned on a LICOR Odyssey infrared imaging system. Integrated intensities in the 800 nm channel and 700 nm channel were measured to determine levels of ER and DNA respectively. Percent ER levels were determined as follows: (Integrated intensity 800 nm sample/integrated intensity 700 nm sample)/(Integrated intensity 800 nm untreated cells/integrated intensity 700 nm untreated cells)×100=% ER levels.

| Compound | pIC50 [1] | MCF7 Viability Assay Max Response [1] | Emax [2] |
| --- | --- | --- | --- |
| CC1=C(c2cc(O)cc(Br)c2)C(c2ccc(OC[C@H](C)N3CC[C@@H](C)C3)cc2)Oc2ccc(O)cc21 (stereo partly drawn) [Example 1, 3-(3-Bromo-5-hydroxyphenyl)-4-methyl-2-(4-((S)-2-((R)-3-methylpyrrolidin-1-yl)propoxy)phenyl)-2H-chromen-6-ol] | > 9.00 | ++ (++ = a single % value ≧50%) | > 85% |
| CC1=C(c2cc(O)ccc2Br)C(c2ccc(OC[C@H](C)N3CC[C@@H](C)C3)cc2)Oc2ccc(O)cc21 (stereo partly drawn) [Example 2, 3-(2-Bromo-5-hydroxyphenyl)-4-methyl-2-(4-((S)-2-((R)-3-methylpyrrolidin-1-yl)propoxy)phenyl)-2H-chromen-6-ol] | > 9.00 | ++ (++ = a single % value ≧50%) | > 85% |
| CC1=C(c2ccccc2Br)C(c2ccc(OC[C@H](C)N3CC[C@@H](C)C3)cc2)Oc2ccc(O)cc21 (stereo partly drawn) [Example 3, 3-(2-Bromophenyl)-4-methyl-2-(4-((S)-2-((R)-3-methylpyrrolidin-1-yl)propoxy)phenyl)-2H-chromen-6-ol] | > 9.00 | ++ (++ = a single % value ≧50%) | 60 to 85% |
| CC1=C(c2ccc(Br)cc2C)C(c2ccc(OC[C@H](C)N3CC[C@@H](C)C3)cc2)Oc2ccc(O)cc21 (stereo partly drawn) [Example 4, 3-(4-Bromo-2-methylphenyl)-4-methyl-2-(4-((S)-2-((R)-3-methylpyrrolidin-1-yl)propoxy)phenyl)-2H-chromen-6-ol] | < 9.00 | ++ (++ = a single % value ≧50%) | 60 to 85% |
| CC1=C(c2ccc(C#N)cc2)C(c2ccc(OC[C@H](C)N3CC[C@@H](C)C3)cc2)Oc2ccc(O)cc21 (stereo partly drawn) [Example 5, 4-(6-Hydroxy-4-methyl-2-(4-((S)-2-((R)-3-methylpyrrolidin-1-yl)propoxy)phenyl)-2H-chromen-3-yl)benzonitrile] | < 9.00 | ++ (++ = a single % value ≧50%) | 60 to 85% |
| CC1=C(c2cccc(C#N)c2)C(c2ccc(OC[C@H](C)N3CC[C@@H](C)C3)cc2)Oc2ccc(O)cc21 (stereo partly drawn) [Example 6, 3-(6-Hydroxy-4-methyl-2-(4-((S)-2-((R)-3-methylpyrrolidin-1-yl)propoxy)phenyl)-2H-chromen-3-yl)benzonitrile] | < 9.00 | ++ (++ = a single % value ≧50%) | 60 to 85% |
| CC1=C(c2cc(O)cc(C#N)c2)C(c2ccc(OC[C@H](C)N3CC[C@@H](C)C3)cc2)Oc2ccc(O)cc21 (stereo partly drawn) [Example 7, 3-Hydroxy-5-(6-hydroxy-4-methyl-2-(4-((S)-2-((R)-3-methylpyrrolidin-1-yl)propoxy)phenyl)-2H-chromen-3-yl)benzonitrile] | > 9.00 | ++ (++ = a single % value ≧50%) | 60 to 85% |
| CC1=C(c2cc(O)ccc2C#N)C(c2ccc(OC[C@H](C)N3CC[C@@H](C)C3)cc2)Oc2ccc(O)cc21 (stereo partly drawn) [Example 8, 4-Hydroxy-2-(6-hydroxy-4-methyl-2-(4-((S)-2-((R)-3-methylpyrrolidin-1-yl)propoxy)phenyl)-2H-chromen-3-yl)benzonitrile] | > 9.00 | ++ (++ = a single % value ≧50%) | > 85% |
| CC1=C(c2cccc(O)c2C#N)C(c2ccc(OC[C@H](C)N3CC[C@@H](C)C3)cc2)Oc2ccc(O)cc21 (stereo partly drawn) [Example 9, 2-Hydroxy-6-(6-hydroxy-4-methyl-2-(4-((S)-2-((R)-3-methylpyrrolidin-1-yl)propoxy)phenyl)-2H-chromen-3-yl)benzonitrile] | < 9.00 | ++ (++ = a single % value ≧50%) | 60 to 85% |
| CC1=C(c2ccc(C#N)c(O)c2)C(c2ccc(OC[C@H](C)N3CC[C@@H](C)C3)cc2)Oc2ccc(O)cc21 (stereo partly drawn) [Example 10, 2-Hydroxy-4-(6-hydroxy-4-methyl-2-(4-((S)-2-((R)-3-methylpyrrolidin-1-yl)propoxy)phenyl)-2H-chromen-3-yl)benzonitrile] | < 9.00 | ++ (++ = a single % value ≧50%) | > 85% |
| CC1=C(c2ccc(O)c(C#N)c2)C(c2ccc(OC[C@H](C)N3CC[C@@H](C)C3)cc2)Oc2ccc(O)cc21 (stereo partly drawn) [Example 11, 2-Hydroxy-5-(6-hydroxy-4-methyl-2-(4-((S)-2-((R)-3-methylpyrrolidin-1-yl)propoxy)phenyl)-2H-chromen-3-yl)benzonitrile] | < 9.00 | ++ (++ = a single % value ≧50%) | > 85% |
| CC1=C(c2ccc(O)cc2C#N)C(c2ccc(OC[C@H](C)N3CC[C@@H](C)C3)cc2)Oc2ccc(O)cc21 (stereo partly drawn) [Example 12, 5-Hydroxy-2-(6-hydroxy-4-methyl-2-(4-((S)-2-((R)-3-methylpyrrolidin-1-yl)propoxy)phenyl)-2H-chromen-3-yl)benzonitrile] | > 9.00 | ++ (++ = a single % value ≧50%) | 60 to 85% |
| CC1=C(c2ccc(C#N)cc2C)C(c2ccc(OC[C@H](C)N3CC[C@@H](C)C3)cc2)Oc2ccc(O)cc21 (stereo partly drawn) [Example 13, 4-(6-Hydroxy-4-methyl-2-(4-((S)-2-((R)-3-methylpyrrolidin-1-yl)propoxy)phenyl)-2H-chromen-3-yl)-3-methylbenzonitrile] | < 9.00 | ++ (++ = a single % value ≧50%) | 60 to 85% |
| CC1=C(c2ccccc2C#N)C(c2ccc(OC[C@H](C)N3CC[C@@H](C)C3)cc2)Oc2ccc(O)cc21 (stereo partly drawn) [Example 14, 2-(6-Hydroxy-4-methyl-2-(4-((S)-2-((R)-3-methylpyrrolidin-1-yl)propoxy)phenyl)-2H-chromen-3-yl)benzonitrile] | < 9.00 | ++ (++ = a single % value ≧50%) | 60 to 85% |
| CC1=C(c2cccc(S(C)(=O)=O)c2)C(c2ccc(OC[C@H](C)N3CC[C@@H](C)C3)cc2)Oc2ccc(O)cc21 (stereo partly drawn) [Example 15, 4-Methyl-2-(4-((S)-2-((R)-3-methylpyrrolidin-1-yl)propoxy)phenyl)-3-(3-(methylsulfonyl)phenyl)-2H-chromen-6-ol] | < 9.00 | ++ (++ = a single % value ≧50%) | 60 to 85% |
| CC1=C(c2cc(O)cc(S(C)(=O)=O)c2)C(c2ccc(OC[C@H](C)N3CC[C@@H](C)C3)cc2)Oc2ccc(O)cc21 (stereo partly drawn) [Example 16, 3-(3-Hydroxy-5-(methylsulfonyl)phenyl)-4-methyl-2-(4-((S)-2-((R)-3-methylpyrrolidin-1-yl)propoxy)phenyl)-2H-chromen-6-ol] | < 9.00 | ++ (++ = a single % value ≧50%) | 60 to 85% |
| CC1=C(c2ccc(O)c(S(C)(=O)=O)c2)C(c2ccc(OC[C@H](C)N3CC[C@@H](C)C3)cc2)Oc2ccc(O)cc21 (stereo partly drawn) [Example 17, 3-(4-Hydroxy-3-(methylsulfonyl)phenyl)-4-methyl-2-(4-((S)-2-((R)-3-methylpyrrolidin-1-yl)propoxy)phenyl)-2H-chromen-6-ol] | < 9.00 | + (+ = a single % value <50%) | < 60% |
| CC1=C(c2ccc(S(C)(=O)=O)cc2C)C(c2ccc(OC[C@H](C)N3CC[C@@H](C)C3)cc2)Oc2ccc(O)cc21 (stereo partly drawn) [Example 18, 4-Methyl-3-(2-methyl-4-(methylsulfonyl)phenyl)-2-(4-((S)-2-((R)-3-methylpyrrolidin-1-yl)propoxy)phenyl)-2H-chromen-6-ol] | < 9.00 | ++ (++ = a single % value ≧50%) | 60 to 85% |
| CC1=C(c2cccc(O)c2)C(c2ccc(OCCN3CCSCC3)cc2)Oc2ccc(O)cc21 (stereo not drawn) [Example 19, 3-(3-Hydroxyphenyl)-4-methyl-2-(4-(2-thiomorpholinoethoxy)phenyl)-2H-chromen-6-ol] | > 9.00 | + (+ = a single % value <50%) | 60 to 85% |
| CC1=C(c2cccc(O)c2)C(c2ccc(OCCN3CCO[C@@H](C)C3)cc2)Oc2ccc(O)cc21 (stereo partly drawn) [Example 20, 3-(3-Hydroxyphenyl)-4-methyl-2-(4-(2-((S)-2-methylmorpholino)ethoxy)phenyl)-2H-chromen-6-ol] | > 9.00 | + (+ = a single % value <50%) | < 60% |
| CC1=C(c2cccc(O)c2)C(c2ccc(OCCN3CCOCC3)cc2)Oc2ccc(O)cc21 (stereo not drawn) [Example 21, 3-(3-Hydroxyphenyl)-4-methyl-2-(4-(2-morpholinoethoxy)phenyl)-2H-chromen-6-ol] | > 9.00 | + (+ = a single % value <50%) | 60 to 85% |
| CC1=C(c2cccc(O)c2)C(c2ccc(OCCN3CCO[C@H](C)C3)cc2)Oc2ccc(O)cc21 (stereo partly drawn) [Example 22, 3-(3-Hydroxyphenyl)-4-methyl-2-(4-(2-((R)-2-methylmorpholino)ethoxy)phenyl)-2H-chromen-6-ol] | < 9.00 | + (+ = a single % value <50%) | < 60% |
